The target in one assay is T1, human FAAH (Homo sapiens, UniProt O00519).
T1 sequence (O00519 1-579): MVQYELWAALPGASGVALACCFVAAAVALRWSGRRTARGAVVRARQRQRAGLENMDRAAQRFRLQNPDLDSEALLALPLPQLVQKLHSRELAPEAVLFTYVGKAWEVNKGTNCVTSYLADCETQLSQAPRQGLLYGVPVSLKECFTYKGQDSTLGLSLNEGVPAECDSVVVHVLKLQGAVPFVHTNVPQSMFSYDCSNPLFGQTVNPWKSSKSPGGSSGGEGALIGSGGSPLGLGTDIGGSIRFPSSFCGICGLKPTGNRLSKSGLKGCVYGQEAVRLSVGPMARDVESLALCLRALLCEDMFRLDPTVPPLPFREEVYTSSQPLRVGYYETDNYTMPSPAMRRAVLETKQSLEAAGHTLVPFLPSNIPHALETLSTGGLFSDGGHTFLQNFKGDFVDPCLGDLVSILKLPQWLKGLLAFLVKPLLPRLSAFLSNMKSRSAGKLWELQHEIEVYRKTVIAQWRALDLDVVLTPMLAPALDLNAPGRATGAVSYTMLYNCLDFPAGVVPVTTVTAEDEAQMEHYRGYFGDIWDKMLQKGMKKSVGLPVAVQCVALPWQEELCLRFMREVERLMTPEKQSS
In words: FAAH inhibition assay (AMC arachidonoyl amide, fluorescence). The class given is biochemical. Conditions: AMC arachidonoyl amide 10 µM, 30 min, RT. As to the method: The IC50 values for compounds were generated in 96-well microtiter plates. The FAAH reaction was conducted at RT at a final volume of 200 µL in 125 mM Tris buffer, pH 9.0, containing 1 mM EDTA. A total of 150 µL of AMC arachidonoyl amide 13.3 µM (final concentration = 10 µM) was added to 10 µL of DMSO containing the appropriate amount of compound. The reaction was initiated by the addition of 40 µL of FAAH (0.9 µg/well) in such a way that the assay was linear over 30 min. After the reaction had proceeded for 30 min, fluorescence values were then measured by using a VictorX3 PerkinElmer instrument at an excitation wavelength of 340 nm and an emission of 460 nm. Two reactions were also run: one reaction containing no compounds and the second one containing neither inhibitor nor enzyme. IC50 values were derived from experimental data using the Sigmoidal dose − response fitting of GraphPad Prism software as reported earlier. To remove possible false-positive results, for each compound concentration, a blank analysis was carried out, and the final fluorescence results were obtained detracting the fluorescence produced by the presence of all the components except FAAH in the same conditions.

The target of the next assay is T2, MAGL (Homo sapiens, UniProt Q99685).
T2 construct: purchased Cayman Chemical
T2 sequence (Q99685 1-303): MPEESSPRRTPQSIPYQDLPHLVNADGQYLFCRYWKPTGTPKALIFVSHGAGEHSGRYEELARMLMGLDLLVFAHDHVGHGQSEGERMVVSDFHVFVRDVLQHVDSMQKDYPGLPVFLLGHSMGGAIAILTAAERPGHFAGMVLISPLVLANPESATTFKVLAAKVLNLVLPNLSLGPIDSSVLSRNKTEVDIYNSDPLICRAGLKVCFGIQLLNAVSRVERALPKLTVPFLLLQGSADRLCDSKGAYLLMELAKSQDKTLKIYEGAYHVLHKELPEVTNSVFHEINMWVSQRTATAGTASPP
In words: MAGL-inhibition assay (4-NPA substrate, absorbance 405 nm). The class given is biochemical. The settings on record: for MAGL/FAAH selectivity: ratio of FAAH IC50 to MAGL IC50 (fold). As to the method: Human recombinant MAGL, and 4-nitrophenylacetate substrate (4-NPA) were from Cayman Chemical. The IC50 values for compounds were generated in 96-well microtiter plates. The MAGL reaction was conducted at RT at a final volume of 200 µL in 10 mM Tris buffer, pH 7.2, containing 1 mM EDTA. A total of 150 µL of 4-NPA 133.3 µM (final concentration = 100 µM) was added to 10 µL of DMSO containing the appropriate amount of compound. The reaction was initiated by the addition of 40 µL of MAGL (11 ng/well) in such a way that the assay was linear over 30 min. […] After the reaction had proceeded for 30 min, absorbance values were then measured by using a VictorX3 PerkinElmer instrument at 405 nm. Two reactions were also run: one reaction containing no compounds and the second one containing neither inhibitor nor enzyme. IC50 values were derived from experimental data using the Sigmoidal dose–response fitting of GraphPad Prism software as reported earlier.

Setting [1] is: human recombinant MAGL, 4-NPA 100 µM, 30 min, RT.

The values below come from article PMC6009861, “Development of terphenyl-2-methyloxazol-5(4H)-one derivatives as selective reversible MAGL inhibitors” (Journal of Enzyme Inhibition and Medicinal Chemistry, 2017).

In turn, `O=C(Oc1ccc([N+](=O)[O-])cc1)N1CCC(C(O)(c2ccc3c(c2)OCO3)c2ccc3c(c2)OCO3)CC1` [JZL-184, reference compound] registered an IC50 against human FAAH of 3.3 ± 0.205 µM.

For the molecule `CC1=N/C(=C\c2cc(-c3ccccc3)cc(-c3ccccc3)c2)C(=O)O1` [Compound 13, (Z)-4-[(1,1′:3′,1′′-Terphenyl)-5′-ylmethylene]-2-methyloxazol-5(4H)-one], the IC50 on human FAAH amounted to 14.8 ± 1.18 µM; on MAGL (setting [1]), 0.457 ± 0.01 µM. Also, the MAGL/FAAH selectivity at MAGL is reported as 32.

With `CC1=N/C(=C\c2cc(-c3ccccc3)ccc2-c2ccccc2)C(=O)O1` [Compound 15, (Z)-4-[(1,1′:4′,1′′-Terphenyl)-2′-ylmethylene]-2-methyloxazol-5(4H)-one], the figures for the IC50 at human FAAH and at MAGL (setting [1]) were 10.9 ± 0.161 µM and 0.32 ± 0.01 µM, respectively. For the same molecule, the MAGL/FAAH selectivity at MAGL was determined as 34.

Consider `CC1=N/C(=C\c2cc(-c3ccc(C(F)(F)F)cc3)ccc2-c2ccc(C(F)(F)F)cc2)C(=O)O1` [Compound 20d, (Z)-4-{[4,4′′-Bis(trifluoromethyl)-(1,1′:4′,1′′-terphenyl)-2′-yl]methylene}-2-methyloxazol-5(4H)-one], for which the results for the IC50 on human FAAH, at MAGL (approximate values) and at MAGL (setting [1]) were 29 ± 1.16 µM, 4 to 6 µM and 6.76 ± 1.13 µM, respectively. In addition, the MAGL/FAAH selectivity at MAGL is 4.

Consider `CC1=N/C(=C\c2cc(-c3ccc(Cl)cc3)ccc2-c2ccc(Cl)cc2)C(=O)O1` [Compound 20h, (Z)-4-{[4,4′′-Dichloro-(1,1′:4′,1′′-terphenyl)-2′-yl]methylene}-2-methyloxazol-5(4H)-one], for which the IC50 at human FAAH is 11.5 ± 0.998 µM; at MAGL (setting [1]) it was 0.476 ± 0.039 µM. Besides, the MAGL/FAAH selectivity at MAGL is on record as 24.

For the molecule `CC1=N/C(=C\c2cccc(-c3ccccc3)c2-c2ccccc2)C(=O)O1` [Compound 9, (Z)-4-[(1,1′:2′,1′′-Terphenyl)-3′-ylmethylene]-2-methyloxazol-5(4H)-one], the IC50 stood at 20.1 ± 1.44 µM against human FAAH and 2.56 ± 0.172 µM at MAGL (setting [1]). For the same molecule, the MAGL/FAAH selectivity at MAGL was determined as 8.

For the molecule `CC1=N/C(=C\c2ccc(-c3ccccc3)cc2-c2ccccc2)C(=O)O1` [Compound 7, (Z)-4-[(1,1′:3′,1′′-Terphenyl)-4′-ylmethylene]-2-methyloxazol-5(4H)-one], the figures for the IC50 on human FAAH and on MAGL (setting [1]) were 18.2 ± 0.904 µM and 0.546 ± 0.02 µM, respectively. In addition, the MAGL/FAAH selectivity at MAGL came out at 33.

With `CC1=N/C(=C\c2cc(-c3ccc(F)cc3)ccc2-c2ccc(F)cc2)C(=O)O1` [Compound 20a, (Z)-4-{[4,4′′-Difluoro-(1,1′:4′,1′′-terphenyl)-2′-yl]methylene}-2-methyloxazol-5(4H)-one], the IC50 against human FAAH stood at 28 ± 1.31 µM; on MAGL (setting [1]), 0.683 ± 0.05 µM. Also, the MAGL/FAAH selectivity at MAGL is 41.

As for `CC1=N/C(=C\c2cc(-c3ccc(OC(F)(F)F)cc3)ccc2-c2ccc(OC(F)(F)F)cc2)C(=O)O1` [Compound 20c, (Z)-4-{[4,4′′-Bis(trifluoromethoxy)-(1,1′:4′,1′′-terphenyl)-2′-yl]methylene}-2-methyloxazol-5(4H)-one], the half-maximal inhibitory concentration (IC50) against human FAAH is 17.7 ± 1.2 µM; on MAGL (approximate values), 4 to 6 µM; on MAGL (setting [1]) it was 4.19 ± 0.299 µM. In addition, on MAGL, the MAGL/FAAH selectivity was 4.

On to `COc1ccc(-c2ccc(-c3ccc(OC)c(F)c3)c(/C=C3\N=C(C)OC3=O)c2)cc1F` [Compound 20g, (Z)-4-{[3,3′′-Difluoro-4,4′′-dimethoxy-(1,1′:4′,1′′-terphenyl)-2′-yl]methylene}-2-methyloxazol-5(4H)-one], for which the values for the IC50 against human FAAH and at MAGL (setting [1]) were 22.3 ± 1.24 µM and 0.335 ± 0.002 µM, respectively. In addition, the MAGL/FAAH selectivity at MAGL amounted to 67.

Take `CC1=N/C(=C\c2cc(-c3ccc4c(c3)OCO4)ccc2-c2ccc3c(c2)OCO3)C(=O)O1` [Compound 20f, (Z)-4–[2,5-Bis(benzo[d][1,3]dioxol-5-yl)benzylidene]-2-methyloxazol-5(4H)-one]: the figures for the IC50 on human FAAH and at MAGL (setting [1]) were 23.7 ± 1.35 µM and 0.673 ± 0.023 µM, respectively. Further, the MAGL/FAAH selectivity on MAGL is on record as 35.
